The text below walks through data of patent KR20200032170A, “편두통 및 군발성 두통의 치료를 위한 졸미트립탄의 치료적 농도를 신속하게 달성하는 방법” (조사노 파마 코포레이션, priority 2017, dated 2019).

Like-named read-outs stand apart in the source and are kept apart here. Where only a bound is given, the exact number is not on record here.

Series [1] concerns migraine (편두통). The conditions noted are these: cited from earlier work; for pain freedom at 2 h / pain relief at 2 h: lowest oral dose; for pain freedom: nasal zolmitriptan.
For series [2] the following is noted: cited from earlier work.
Series [3] is described as follows: Zolmitriptan pKa. Format: physicochemical.

Broadly, the Tmax is the time at which the peak concentration occurs. For the compound `CNS(=O)(=O)Cc1ccc2[nH]cc(CCN(C)C)c2c1` [수마트립탄], in series [1] (injected), the onset of action is not above 10 min. Further, the Tmax in series [2] (oral tablet) is approximately 2 h. Further, in series [2] (oral, as succinate), the oral bioavailability is listed as approximately 15%.

As for `CN(C)CCc1c[nH]c2ccc(C[C@H]3COC(=O)N3)cc12` [졸미트립탄], the “pKa (weak base)” value in series [3] amounted to 9.6. Moreover, the “pain freedom at 2 h” value in series [1] is 29%. For the same compound, in series [1], the “pain relief at 2 h” value is listed as 62%. Further, the pain freedom is approximately 10% in series [1] (1 h), less than 25% in series [1] (2 h) and less than 40% in series [1] (4 h). For the same compound, in series [1] (placebo-controlled clinical trials), the “efficacy and tolerability (in words)” value is listed as “효과적이고 우수한 내약성을 갖는 것으로 보여졌다”. In series [2] (nasal administration), the Tmax is approximately 1.5 h.

Regarding `CNCCc1c[nH]c2ccc(C[C@H]3COC(=O)N3)cc12` [N-데스메틸 졸미트립탄], the “metabolite concentration relative to zolmitriptan concentration” value in series [2] (in vivo) was 2/3.

`CNS(=O)(=O)CCc1ccc2[nH]cc(C3CCN(C)CC3)c2c1` [나라트립탄]: in series [1], the “pain freedom at 2 h” value is 18% and the “pain relief at 2 h” value is 49%.
